Publication PMC7255010, “Small-molecule activating SIRT6 elicits therapeutic effects and synergistically promotes anti-tumor activity of vitamin D3 in colorectal cancer” (Theranostics, 2020)

How the values were obtained:
[1] = tested on: CRC cells (HCT116, HT29, and SW480); test: Calcein-AM/PI live-dead double staining; assay type: cell-based; conditions: 10 μM MDL-811, CRC cells
Procedure: Live-dead cell staining was performed following the protocol of a Calcein-AM/PI Double Stain Kit (Yeasen). Briefly, 3 × 10^4 cells per well were seeded into 24-well plates. […] Then, cell images were acquired with a fluorescence microscope (Nikon Inverted Research Microscope Eclipse Ti). For each assay, five random fields of view per well were imaged at 10× magnification.

FHC cells = test: LDH assay of cytotoxicity in FHC cells; assay type: cell-based; conditions: 48 h
Procedure: Cell cytotoxicity was assessed by measuring LDH release from damaged or dead cells using a Cytotoxicity LDH Assay Kit-WST (Dojindo) following the manufacturer's instructions. Briefly, 5 × 10^3 cells per well were plated in 96-well plates. […] The final DMSO concentration in the medium was 0.1%. The amount of LDH leakage from the cells was determined by measuring the absorbance at 490 nm using a microplate reader (Synergy H4 Hybrid Reader, BioTek). The percentage of cytotoxicity was calculated as follows: [(test sample - low control)/ (high control - low control)] × 100, where low control is the absorbance of the culture medium without any added extract, and high control is the absorbance of the culture medium in which the cells were treated with 1% (v/v) Triton X-100 to achieve 100% LDH release. Each data point is presented as the mean ± s.d. of three independent experiments.

SIRT6 [2] = molecular target: T1, SIRT6 (Homo sapiens, UniProt Q8N6T7); test: SIRT6 deacetylation on nucleosome substrates (western blot); assay type: biochemical; parameters: WT (wild-type) full-length human SIRT6 was inserted into the pET28a-LIC vector; made in house; host or cells: Escherichia coli BL21 (DE3); conditions: natural nucleosomes, dose-dependent
Procedure: In vitro deacetylation reactions on nucleosome substrates were performed as previously reported, [32]. Briefly, 5 μg of mononucleosomes purified from HeLa cells with a nucleosome preparation kit (Active Motif) and 0.2 μg of purified WT SIRT6 were incubated in 40 μL of HDAC buffer (50 mM Tris-HCl [pH 8.0], 2 mM NAD^+, and 150 mM NaCl) for 80 min at 30 °C. […] The reaction mixture was analyzed by western blotting.

[3] = tested on: adenomas in small intestines and colons of APC^min/+ mice; test: APC^min/+ model of spontaneous CRC; assay type: in vivo, C57BL/6J-APC^min/+ mice; conditions: 20 mg/kg intraperitoneal injection every two days for 12 weeks
Procedure: C57BL/6J-APC^min/+ mice were obtained from Jackson Laboratory. […] The mice were sacrificed in the twentieth week. Tumor numbers were calculated, and tumors were imaged after longitudinal dissection of the small intestine and colon. Then, the small intestines and colons were sectioned and stained for immunohistochemistry.

SW480 = test: Cell proliferation, CCK-8; assay type: cell-based; conditions: Homo sapiens; SW480, CCK8, 48 h
Procedure: (§1) Cell proliferation was evaluated using a Cell Counting Kit-8 (CCK-8) (Dojindo) following the manufacturer's instructions. Briefly, CRC cells were plated in 96-well plates at a density of 5 × 10^3 cells per well. […] Cells treated with DMSO were used as the […] controls, and the final DMSO concentration in the medium was 0.1%. After 48 h of treatment, 10 μL of CCK-8 solution was added to every well and incubated for 1 h at 37 °C. Then, a microplate reader (Synergy H4 Hybrid Reader, BioTek) was used to measure the absorbance of the solvent at 450 nm. The background of drug and culture medium has been deducted in each well. The relative cell proliferation of each treatment group was expressed as the percentage change relative to the […] control group. Each data point is the mean ± s.d. of two or three independent experiments.

HT29 = test: Cell proliferation, CCK-8; assay type: cell-based; conditions: Homo sapiens, HT-29; HT29, CCK8, 48 h
Procedure: as §1

NCI-H716 = test: Cell proliferation, CCK-8; assay type: cell-based; conditions: Homo sapiens; NCI-H716, CCK8, 48 h
Procedure: as §1

LS180 = test: Cell proliferation, CCK-8; assay type: cell-based; conditions: Homo sapiens; LS180, CCK8, 48 h
Procedure: as §1

SW1463 = test: Cell proliferation, CCK-8; assay type: cell-based; conditions: Homo sapiens; SW1463, CCK8, 48 h
Procedure: as §1

T84 = test: Cell proliferation, CCK-8; assay type: cell-based; conditions: Homo sapiens; T84, CCK8, 48 h
Procedure: as §1

HCT15 = test: Cell proliferation, CCK-8; assay type: cell-based; conditions: Homo sapiens, HCT-15; HCT15, CCK8, 48 h
Procedure: as §1

RKO = test: Cell proliferation, CCK-8; assay type: cell-based; conditions: Homo sapiens, CCK8, 48 h
Procedure: as §1

NCI-H508 = test: Cell proliferation, CCK-8; assay type: cell-based; conditions: Homo sapiens; NCI-H508, CCK8, 48 h
Procedure: as §1

LS513 = test: Cell proliferation, CCK-8; assay type: cell-based; conditions: Homo sapiens, LS-513; LS513, CCK8, 48 h
Procedure: as §1

DLD-1 = test: Cell proliferation, CCK-8; assay type: cell-based; conditions: Homo sapiens; DLD-1, CCK8, 48 h
Procedure: as §1

SIRT6 [4] = molecular target: T1, SIRT6; test: FDL assay of SIRT6 deacylase activity (EALPKK-Myr-AMC); assay type: biochemical; parameters: WT (wild-type) full-length human SIRT6 was inserted into the pET28a-LIC vector; made in house; host or cells: Escherichia coli BL21 (DE3); conditions: myristoyl peptide EALPKK-Myr-AMC
Procedure: According to previously described methods, WT (wild-type) full-length human SIRT6 was inserted into the pET28a-LIC vector (Addgene plasmid #26094). The plasmid was transformed into Escherichia coli BL21 (DE3) cells. Protein was purified using a nickel column and gel filtration. Purified protein was dialyzed into assay buffer (50 mM Tris-HCl [pH 8.0], 137 mM NaCl, 2.7 mM KCl, and 1 mM MgCl2) and used in all in vitro assays performed in this study.
[…], 5 μM WT SIRT6 was incubated in a 50-μL reaction mixture (2.5 mM NAD^+, […], compounds/DMSO, and assay buffer) at 37 °C for 2 h, quenched with 40 mM nicotinamide, and developed with 6 mg/mL trypsin for another 30 min at 25 °C. […] Fluorescence intensity was measured using a microplate reader (Synergy H4 Hybrid Reader, BioTek) at excitation and emission wavelengths of 360 nm and 460 nm, respectively. EC50 values were calculated by fitting the data points with the dose-response function in GraphPad Prism V7 (GraphPad Software). Each experiment was independently repeated three times in technical triplicates.

T1 sequence (Q8N6T7 whole entry): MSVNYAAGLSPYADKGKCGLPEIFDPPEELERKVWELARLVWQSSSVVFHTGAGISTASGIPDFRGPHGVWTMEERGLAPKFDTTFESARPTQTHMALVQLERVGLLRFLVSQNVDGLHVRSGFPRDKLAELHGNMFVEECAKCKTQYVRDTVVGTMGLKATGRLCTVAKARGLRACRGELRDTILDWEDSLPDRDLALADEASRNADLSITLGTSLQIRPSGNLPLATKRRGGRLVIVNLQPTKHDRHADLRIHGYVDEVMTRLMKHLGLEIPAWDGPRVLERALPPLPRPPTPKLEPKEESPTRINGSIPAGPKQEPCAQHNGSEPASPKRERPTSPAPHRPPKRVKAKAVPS

## Cc1cc(F)c(Br)cc1NS(=O)(=O)c1ccc(NS(=O)(=O)c2cc(Cl)cc(Cl)c2)cc1CN1CCOC[C@H]1C [MDL-811]
[1]
  cell death, live-dead double staining: did not cause observable cell death
FHC cells
  cytotoxicity (LDH release): low cytotoxic effect
SIRT6 [2]
  deacetylation of H3K9Ac, H3K18Ac, and H3K56Ac: significantly enhanced the deacetylation of SIRT6 (H3K9Ac, H3K18Ac, and H3K56Ac)
[3]
  number and size of adenomas: significantly reduced the number and size of adenomas
SW480
  IC50: 9.3 ± 1.7 µM
HT29
  IC50: 7 ± 1.1 µM
NCI-H716
  IC50: 61 ± 2.3 µM
LS180
  IC50: 19.1 ± 0.4 µM
SW1463
  IC50: 13 ± 1.5 µM
T84
  IC50: 13 ± 1.4 µM
HCT15
  IC50: 20.5 ± 1.3 µM
RKO
  IC50: 12.3 ± 1.8 µM
NCI-H508
  IC50: 9.7 ± 1.2 µM
LS513
  IC50: 28.6 ± 0.6 µM
DLD-1
  IC50: 18 ± 0.1 µM
SIRT6 [4]
  effect on SIRT6 deacylation: no apparent effect
